Patent US20150010928A1, “MEANS AND METHODS FOR ASSESSING AN ENDOCRINE DISEASE OR DISORDER” (priority 2012, published 2015)
Marks after values point to notes of the source that are not given here.

Tested on: male rats
Assay: Plasma metabolite profiling (GC-MS, LC-MS, SPE-LC-MS) in male rats dosed once daily over 28 days (OECD 407)
Type: in vivo, rat
Conditions: high dose; for Alanine, ratio versus control / Androstenedione, ratio versus control / Cholesterol, ratio versus control / Glycine, ratio versus control / Heptadecanoic acid (C17:0), ratio versus control / Testosterone, ratio versus control / Threonine, ratio versus control / Uric acid, ratio versus control / alpha-Tocopherol, ratio versus control: male rats, plasma
Experimental: Each dose group in the studies consisted of five rats per sex. Additional groups of each 5 male and female animals served as controls. […] All animals of the animal population were kept under the same constant temperature (20-24±3° C.) and the same constant humidity (30-70%). The animals of the animal population were fed ad libitum. The food to be used was essentially free of chemical or microbial contaminants. Drinking water was also offered ad libitum. Accordingly, the water was free of chemical and microbial contaminants as laid down in the European Drinking Water Directive 98/83/EG. The illumination period was 12 hours light followed by 12 hours darkness (12 hours light, from 6:00 to 18:00, and 12 hours darkness, from 18:00 to 6:00). […] The test substances (compounds) in the Tables 1 to 17 below were dosed and administered as described in the Table 18.
In the morning of day 7, 14, and 28, blood was taken from the retroorbital venous plexus from fasted anaesthetized animals. From each animal, 1 ml of blood was collected with EDTA as anticoagulant. The samples were centrifuged for generation of plasma. All plasma samples were covered with a N2 atmosphere and then stored at −80° C. until analysis.
For mass spectrometry-based metabolite profiling analyses plasma samples were extracted and a polar and a non-polar (lipid) fraction was obtained. For GC-MS analysis, the non-polar fraction was treated with methanol under acidic conditions to yield the fatty acid methyl esters. Both fractions were further derivatised with O-methyl-hydroxyamine hydrochloride and pyridine to convert Oxogroups to O-methyloximes and subsequently with a silylating agent before analysis. In LC-MS analysis, both fractions were reconstituted in appropriate solvent mixtures. HPLC was performed by gradient elution on reversed phase separation columns. Mass spectrometric detection which allows target and high sensitivity MRM (Multiple Reaction Monitoring) profiling in parallel to a full screen analysis was applied as described in WO2003073464.
Steroids and their metabolites were measured by online SPE-LC-MS (Solid phase extraction-LC-MS).
Following comprehensive analytical validation steps, the data for each analyte were normalized against data from pool samples. These samples were run in parallel through the whole process to account for process variability. The significance of treatment group values specific for sex, treatmentduration and metabolite was determined by comparing means of the treated groups to the means of the respective untreated control groups using WELCH-test and quantified with treatment ratios versus control and p-values.
The identification of the most important biomarkers per toxicity pattern was done by a ranking of the analytes in the tables below. Therefore the metabolic changes in reference treatments of a given pattern (shown in the table) were compared with changes of the same metabolite in other unrelated treatments. […] The maximum absolute value of the respective TVALUE was taken to indicate the most important metabolite for the pattern.

## C#C[C@]1(O)CC[C@H]2[C@@H]3CCc4cc(O)ccc4[C@H]3CC[C@@]21C [17-alpha-Ethynylestradiol]
m7, Table 14b
  Cholesterol: 0.19
  Choline plasmalogen No 02: 0.28
  Lignoceric acid (C24:0): 0.2
  Sphingomyelin (d18:1, C16:0): 0.2
  Sphingomyelin (d18:2, C16:0): 0.19
  erythro-Sphingosine (d18:1): 0.09
m7, Table 12d
  3,4-Dihydroxyphenylacetic acid (DOPAC): 1.01
  Choline plasmalogen No 02: 0.28 *
  Choline plasmalogen No 03: 0.41 *
  Coenzyme Q10: 0.16 *
  Elaidic acid (C18:trans[9]1): 0.54 *
  Glycerol phosphate, lipid fraction: 0.22 *
  Glycerol, polar fraction: 0.68 *
  Lysophosphatidylcholine (C17:0): 0.38 *
  Lysophosphatidylcholine (C18:0): 0.77 *
  Lysophosphatidylcholine (C20:4): 0.78 *
  Lysophosphatidylethanolamine (C22:0): 0.28 *
  Phosphatidylcholine (C18:0, C20:3): 0.21 *
  Phosphatidylcholine No 04: 0.17 *
  Sphingomyelin (d18:1, C16:0): 0.32 *
  Sphingomyelin (d18:2, C16:0): 0.19 *
  Sphingomyelin (d18:2,C18:0): 0.24 *
  Threonic acid: 0.47 *
  Tyrosine: 1.09
  beta-Sitosterol: 0.3 *
  myo-Inositol, lipid fraction: 0.22 *
m14, Table 14b
  Cholesterol: 0.24
  Choline plasmalogen No 02: 0.46
  Lignoceric acid (C24:0): 0.21
  Sphingomyelin (d18:1, C16:0): 0.37
  Sphingomyelin (d18:2, C16:0): 0.24
  erythro-Sphingosine (d18:1): 0.13
m14, Table 12d
  3,4-Dihydroxyphenylacetic acid (DOPAC): 0.58 *
  Choline plasmalogen No 02: 0.46 *
  Choline plasmalogen No 03: 0.43 *
  Coenzyme Q10: 0.31 *
  Elaidic acid (C18:trans[9]1): 0.63 *
  Glycerol phosphate, lipid fraction: 0.31 *
  Glycerol, polar fraction: 0.84
  Lysophosphatidylcholine (C17:0): 0.58 *
  Lysophosphatidylcholine (C18:0): 0.84 *
  Lysophosphatidylcholine (C20:4): 0.83 *
  Lysophosphatidylethanolamine (C22:0): 0.45 *
  Phosphatidylcholine (C18:0, C20:3): 0.47 *
  Phosphatidylcholine No 04: 0.42 *
  Sphingomyelin (d18:1, C16:0): 0.4 *
  Sphingomyelin (d18:2, C16:0): 0.24 *
  Sphingomyelin (d18:2,C18:0): 0.18 *
  Threonic acid: 0.52 *
  Tyrosine: 0.96
  beta-Sitosterol: 0.38 *
  myo-Inositol, lipid fraction: 0.29 *
m28, Table 14b
  Cholesterol: 0.39
  Choline plasmalogen No 02: 0.55
  Lignoceric acid (C24:0): 0.43
  Sphingomyelin (d18:1, C16:0): 0.44
  Sphingomyelin (d18:2, C16:0): 0.34
  erythro-Sphingosine (d18:1): 0.24
m28, Table 12d
  3,4-Dihydroxyphenylacetic acid (DOPAC): 0.96
  Choline plasmalogen No 02: 0.55 *
  Choline plasmalogen No 03: 0.48 *
  Coenzyme Q10: 0.37 *
  Elaidic acid (C18:trans[9]1): 0.48 *
  Glycerol phosphate, lipid fraction: 0.29 *
  Glycerol, polar fraction: 0.63 *
  Lysophosphatidylcholine (C17:0): 0.67 *
  Lysophosphatidylcholine (C18:0): 0.89 *
  Lysophosphatidylcholine (C20:4): 0.88 *
  Lysophosphatidylethanolamine (C22:0): 0.54 *
  Phosphatidylcholine (C18:0, C20:3): 0.79 *
  Phosphatidylcholine No 04: 0.64 *
  Sphingomyelin (d18:1, C16:0): 0.65 *
  Sphingomyelin (d18:2, C16:0): 0.34 *
  Sphingomyelin (d18:2,C18:0): 0.41 *
  Threonic acid: 0.54 *
  Tyrosine: 0.83 *
  beta-Sitosterol: 0.7 *
  myo-Inositol, lipid fraction: 0.53 *

## CCNC(=O)[C@@H]1CCCN1C(=O)[C@H](CCCNC(=N)N)NC(=O)[C@H](CC(C)C)NC(=O)[C@@H](COC(C)(C)C)NC(=O)[C@H](Cc1ccc(O)cc1)NC(=O)[C@H](CO)NC(=O)[C@H](Cc1c[nH]c2ccccc12)NC(=O)[C@H](Cc1cnc[nH]1)NC(=O)[C@@H]1CCC(=O)N1 [Buserelin acetate a.c., Buserelin acetate]
Day 7
  Alanine, ratio versus control: 0.67 *
  Androstenedione, ratio versus control: 0.17 *
  Cholesterol, ratio versus control: 0.9 *
  Glycine, ratio versus control: 0.83 *
  Heptadecanoic acid (C17:0), ratio versus control: 0.81 *
  Testosterone, ratio versus control: 0.11 *
  Threonine, ratio versus control: 1.01 *
  Uric acid, ratio versus control: 0.59 *
  alpha-Tocopherol, ratio versus control: 0.88 *
Day 14
  Alanine, ratio versus control: 0.74 *
  Androstenedione, ratio versus control: 0.5 *
  Cholesterol, ratio versus control: 0.84 *
  Glycine, ratio versus control: 0.91^
  Heptadecanoic acid (C17:0), ratio versus control: 0.94 *
  Testosterone, ratio versus control: 0.19 *
  Threonine, ratio versus control: 0.92 *
  Uric acid, ratio versus control: 076 *
  alpha-Tocopherol, ratio versus control: 0.93 *
Day 28
  Alanine, ratio versus control: 0.78^
  Androstenedione, ratio versus control: 0.35 *
  Cholesterol, ratio versus control: 0.91^
  Glycine, ratio versus control: 0.91 *
  Heptadecanoic acid (C17:0), ratio versus control: 0.91 *
  Testosterone, ratio versus control: 0.08 *
  Threonine, ratio versus control: 1.01^
  Uric acid, ratio versus control: 0.85 *
  alpha-Tocopherol, ratio versus control: 1.03^
